This assay has as its target T1, P. aeruginosa PGDH (SerA) (Pseudomonas aeruginosa, UniProt Q9I6H5).
T1 construct: full-length ORF, N-terminal GST fusion (pGEX-6P-1), GST cut off on resin by protease, expressed in E. coli BL21, 44 kDa
T1 sequence (Q9I6H5 1-409): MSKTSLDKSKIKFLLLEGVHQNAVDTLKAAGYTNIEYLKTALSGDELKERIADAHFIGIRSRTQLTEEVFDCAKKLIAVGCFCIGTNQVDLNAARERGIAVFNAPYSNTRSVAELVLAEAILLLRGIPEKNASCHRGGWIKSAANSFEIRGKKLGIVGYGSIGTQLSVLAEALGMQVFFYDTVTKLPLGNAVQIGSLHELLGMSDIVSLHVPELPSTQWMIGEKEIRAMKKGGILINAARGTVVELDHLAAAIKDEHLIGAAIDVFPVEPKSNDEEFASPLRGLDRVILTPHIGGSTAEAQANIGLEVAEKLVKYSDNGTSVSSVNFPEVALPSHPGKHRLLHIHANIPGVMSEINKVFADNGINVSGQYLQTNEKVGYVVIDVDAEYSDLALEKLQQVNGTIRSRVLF
Put plainly: NADH formation at […] nm. The class given is biochemical.

SMILES strings stand for the structures. pIC50: −log10 of the molar value.

Usually pIC50 stands for the IC50 on a negative log10 scale, so that one unit is a factor of ten. Higher therefore signals a low IC50. `N[C@H](CO)C(=O)O` [D-serine] had a negative-log IC50 (pIC50) of 1.12.

`N[C@@H](CO)C(=O)O` [L-serine] showed a pIC50 of 3.20.

For the origin of these results see article PMC6600881 (Gut Pathogens, 2019).
